Several values for one entry are separate records, joined by “and”; a condition that tells them apart may be missing. Equal entries are not always repeated.
Legend:
[1] = reference substances with known distribution coefficients; cited from earlier work
[2] = Octanol/water distribution coefficient (logP/D), isocratic HPLC method; format: physicochemical; details: pH 7.4
From the text: Assay for Determining the Octanol/Water Distribution Coefficient (logP/D):
The distribution coefficient octanol/water P or D is a key parameter for estimating membrane penetration and permeability. It is defined as the ratio of the equilibrium concentrations of a substance in the two-phase system octanol/water.
It is usually stated in form of the decadic logarithm (logP or logD).
logP describes the distribution behaviour of a substance exclusively present in its neutral form. logD describes the distribution behaviour of a substance at a certain pH; depending on the ionization constant pKa of the substance, some of the substance may be present in ionic form, and some in neutral form.
The logP/D of the active compounds was determined using an isocratic HPLC method (HPLC=high performance liquid chromatography) (literature: OECD Guideline for Testing of Chemicals No. 117). The method is based on the correlation of the HPLC retention time of the test substance to that of reference substances with known distribution coefficients.
The test substance was employed as a 10 mM solution in DMSO (DMSO=dimethyl sulphoxide). 10 μl of this solution were made up to 100 μl with a methanol/water mixture in a ratio of 7+3.
The nine reference substances were dissolved individually in methanol. 100 μl each of the stock solutions were added to an HPLC vial and mixed with 300 μl of water.
A formamide solution was used to determine the hold-up time. To this end, 7 mg of formamide were dissolved in 10 ml of methanol. 100 μl of this stock solution were mixed with 500 μl of methanol and 200 μl of water.
All solutions were chromatographed using a flow rate of 1.00 ml/min.
Injection Protocol: formamide, references, test substance 1, test substance 2, . . . , formamide, references.
Evaluation of the retention times was carried out in a diode array detector (DAD) at 200-400 nm Via the molecular mass, the identity of the test substance was checked using the downstream mass spectrometer.
The HPLC run was evaluated using the Waters software Masslynx 4.1.
The logP/D values were calculated using the software “POW Determination” (proprietary development).

PC3 = test: Tumour cell proliferation, CellTiter-Glo, 96-hour incubation, PC3; format: cell-based; details: Homo sapiens, PC-3, 96 h; read-out: PC3 IC50
Description: (§1) In accordance with the invention, the substances were tested in cell-based assays for the ability of the substances of inhibiting tumour cell proliferation after a 96-hour incubation with the substance. Cell viability was tested using the CellTiter-Glo® luminescent cell viability assay (Promega). The cells were sown at a density of 2000-5000 cells/well (depending on the cell line) in 100 μl growth medium on 96-well microtiter plates. For each cell line examined, cells were sown on a separate plate to determine the luminescence at t=0 hours and t=96 hours. After overnight incubation at 37° C., the luminescence values for the t=0 samples were determined. The dose plates for the t=96 hours points in time were treated with substances diluted with growth medium. The cells were then incubated at 37° C. for 96 hours, and the luminescence values for the t=96 hours samples were then determined. For data analysis, the t=0 values were subtracted from the t=96 hours values for treated and untreated samples. The differences in luminescence in percent between substance-treated samples and control values were used to determine the growth inhibition in percent.
(§2) The substances were tested in the following cell lines which represent the stated indications in an exemplary manner: […]

plasma proteins = test: Plasma protein binding by equilibrium dialysis, mouse; format: in vitro ADME
Description: The binding of test substances to plasma proteins is determined by equilibrium dialysis by means of the Ht-dialysis apparatus (96-well) made of Teflon and a semipermeable membrane (regenerated cellulose, MWCO 12-14K). This separates 150 μl each of a plasma side and a buffer side (50 mM phosphate buffer). The test substance is added in 2 concentrations (usually 3 and 0.3 μM) to the plasma side and binds to plasma proteins. The unbound fraction of the test substance passes through the membrane and is distributed on either side until equilibrium is established (after approx. 6-8 h at 37° C.). The substance concentration on the buffer side and the plasma side is determined by LC-MS analysis. For this, both sides are brought by dilution with buffer or plasma to the same matrix (10% plasma) and then precipitated with methanol. The free (unbound) fraction (fu) is calculated from the quotient of the buffer and plasma concentration. Stability tests and recovery tests are run concurrently as controls. In addition, the substance in buffer is dialysed against buffer, to check the nonspecific binding to apparatus and membrane and establishment of equilibrium. Because during incubation the osmotic pressure of the plasma proteins leads to dilution of the plasma (volume shift), this possible error is determined by weighing blank plasma samples and is included in the calculation of fu. Establishment of equilibrium and plasma stability should have a value not lower than 80% and the recovery should be at least 30%. A free fraction of <1% is regarded as high, between 1 and 10% as moderate and >10% as low plasma protein binding.

H460 = test: Tumour cell proliferation, CellTiter-Glo, 96-hour incubation, H460; format: cell-based; details: Homo sapiens, NCI-H460, 96 h; read-out: H460 IC50
Description: as §1, §2

[3] = Membrane affinity logMA (MA-Transil); format: physicochemical; details: buffer pH 7.4
KM12 = test: Tumour cell proliferation, CellTiter-Glo, 96-hour incubation, KM12; format: cell-based; details: Homo sapiens, KM12, 96 h; read-out: KM12 IC50
Description: as §1, §2

MCF7 = test: Tumour cell proliferation, CellTiter-Glo, 96-hour incubation, MCF7; format: cell-based; details: Homo sapiens, MCF7, 96 h; read-out: MCF7 IC50
Description: as §1, §2

human ACC1 = test: Human ACC1 enzyme assay (ADP-Glo); format: biochemical
[4] = biological target: human serum albumin (HSA) (Homo sapiens, UniProt P02768); test: Protein binding to human serum albumin (HSA-Transil); details: human, pH 7.4
Chain of human serum albumin (HSA) (P02768 25-609): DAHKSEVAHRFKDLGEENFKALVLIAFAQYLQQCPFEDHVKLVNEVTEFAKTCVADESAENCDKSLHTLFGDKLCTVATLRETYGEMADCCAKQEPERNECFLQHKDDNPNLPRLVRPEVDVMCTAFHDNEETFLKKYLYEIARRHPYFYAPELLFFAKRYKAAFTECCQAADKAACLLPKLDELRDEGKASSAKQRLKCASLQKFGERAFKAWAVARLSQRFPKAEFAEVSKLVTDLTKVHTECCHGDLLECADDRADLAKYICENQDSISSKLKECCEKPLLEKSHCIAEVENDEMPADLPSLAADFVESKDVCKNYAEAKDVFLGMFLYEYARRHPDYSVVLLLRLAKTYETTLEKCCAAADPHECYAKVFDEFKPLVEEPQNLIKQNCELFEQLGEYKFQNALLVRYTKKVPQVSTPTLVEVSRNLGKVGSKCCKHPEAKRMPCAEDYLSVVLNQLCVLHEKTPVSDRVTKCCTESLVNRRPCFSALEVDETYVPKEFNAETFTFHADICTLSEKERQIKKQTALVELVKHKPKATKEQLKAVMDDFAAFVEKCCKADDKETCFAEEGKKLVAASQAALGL

human ACC2 = human ACC2 (Homo sapiens, UniProt O00763); test: Human ACC2 enzyme assay (ADP-Glo); details: ACC 2 IC50, individual measurements
Chain of human ACC2 (O00763 27-2458 limits assumed): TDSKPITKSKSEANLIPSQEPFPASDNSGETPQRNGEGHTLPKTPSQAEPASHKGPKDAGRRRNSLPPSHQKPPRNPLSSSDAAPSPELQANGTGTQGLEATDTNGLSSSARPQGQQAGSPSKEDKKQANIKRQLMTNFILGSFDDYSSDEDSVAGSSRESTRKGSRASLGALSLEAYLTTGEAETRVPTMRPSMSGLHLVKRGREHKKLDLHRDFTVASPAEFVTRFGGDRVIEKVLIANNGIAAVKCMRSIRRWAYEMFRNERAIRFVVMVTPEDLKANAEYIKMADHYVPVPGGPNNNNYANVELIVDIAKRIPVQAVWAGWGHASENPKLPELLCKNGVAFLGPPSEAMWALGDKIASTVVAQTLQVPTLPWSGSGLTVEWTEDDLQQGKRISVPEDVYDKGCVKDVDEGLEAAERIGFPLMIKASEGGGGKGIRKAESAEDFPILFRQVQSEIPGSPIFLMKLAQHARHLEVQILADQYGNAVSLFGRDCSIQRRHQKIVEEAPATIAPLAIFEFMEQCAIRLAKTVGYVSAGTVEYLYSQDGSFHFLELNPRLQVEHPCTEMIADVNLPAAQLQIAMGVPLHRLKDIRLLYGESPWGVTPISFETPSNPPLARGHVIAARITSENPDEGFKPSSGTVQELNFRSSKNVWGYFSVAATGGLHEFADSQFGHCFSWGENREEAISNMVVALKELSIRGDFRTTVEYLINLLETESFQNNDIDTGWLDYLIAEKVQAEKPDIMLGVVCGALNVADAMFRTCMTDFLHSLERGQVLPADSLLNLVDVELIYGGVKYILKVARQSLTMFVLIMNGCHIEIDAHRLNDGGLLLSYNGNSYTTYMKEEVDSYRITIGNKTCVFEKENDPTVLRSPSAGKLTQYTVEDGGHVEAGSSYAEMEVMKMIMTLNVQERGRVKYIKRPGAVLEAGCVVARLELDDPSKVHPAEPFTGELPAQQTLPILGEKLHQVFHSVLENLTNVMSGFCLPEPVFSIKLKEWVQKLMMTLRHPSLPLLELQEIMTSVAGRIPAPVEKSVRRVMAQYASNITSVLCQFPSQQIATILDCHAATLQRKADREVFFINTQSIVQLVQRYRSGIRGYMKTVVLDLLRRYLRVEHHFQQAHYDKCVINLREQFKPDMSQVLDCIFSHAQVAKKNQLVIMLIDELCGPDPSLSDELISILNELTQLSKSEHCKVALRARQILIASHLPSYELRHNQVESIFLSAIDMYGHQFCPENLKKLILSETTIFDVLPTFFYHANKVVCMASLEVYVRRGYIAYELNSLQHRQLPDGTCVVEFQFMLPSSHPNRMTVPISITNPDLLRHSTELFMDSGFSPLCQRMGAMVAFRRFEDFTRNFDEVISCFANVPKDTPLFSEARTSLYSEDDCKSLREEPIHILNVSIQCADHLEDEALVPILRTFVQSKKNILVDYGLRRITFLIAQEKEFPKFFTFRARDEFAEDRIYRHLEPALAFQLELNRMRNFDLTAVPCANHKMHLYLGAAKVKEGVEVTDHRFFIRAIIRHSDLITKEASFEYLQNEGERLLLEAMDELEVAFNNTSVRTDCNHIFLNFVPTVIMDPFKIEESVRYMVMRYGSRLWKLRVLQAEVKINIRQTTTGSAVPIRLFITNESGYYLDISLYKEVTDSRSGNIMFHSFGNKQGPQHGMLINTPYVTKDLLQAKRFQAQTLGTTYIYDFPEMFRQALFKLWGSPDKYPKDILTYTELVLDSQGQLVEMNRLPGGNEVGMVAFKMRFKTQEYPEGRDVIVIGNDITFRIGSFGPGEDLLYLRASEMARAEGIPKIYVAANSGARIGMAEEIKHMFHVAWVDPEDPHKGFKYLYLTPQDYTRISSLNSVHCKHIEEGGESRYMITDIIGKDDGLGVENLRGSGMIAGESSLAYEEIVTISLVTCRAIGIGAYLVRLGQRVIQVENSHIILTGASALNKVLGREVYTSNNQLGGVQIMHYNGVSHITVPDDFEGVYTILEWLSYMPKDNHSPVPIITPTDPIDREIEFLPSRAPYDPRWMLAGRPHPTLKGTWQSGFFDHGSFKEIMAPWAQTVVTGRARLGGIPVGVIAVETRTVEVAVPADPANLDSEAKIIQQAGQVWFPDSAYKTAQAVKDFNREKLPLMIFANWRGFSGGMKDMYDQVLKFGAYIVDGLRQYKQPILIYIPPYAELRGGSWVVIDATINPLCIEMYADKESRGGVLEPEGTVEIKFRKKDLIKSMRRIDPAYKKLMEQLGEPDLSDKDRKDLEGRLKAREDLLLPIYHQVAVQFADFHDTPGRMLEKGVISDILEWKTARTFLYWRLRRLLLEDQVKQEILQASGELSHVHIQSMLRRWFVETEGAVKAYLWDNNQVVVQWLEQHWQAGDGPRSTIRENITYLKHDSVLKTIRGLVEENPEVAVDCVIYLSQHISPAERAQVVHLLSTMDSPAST

Tetranychus urticae = test: Tetranychus test, OP-resistant (TETRUR spray treatment); format: in vivo; details: 500 g/ha, after 6 days
Lucilia cuprina = Lucilia cuprina test (LUCICU); format: in vivo; details: 100 ppm, after 2 days
From the text: (§3) • Solvent: dimethyl sulphoxide
Vessels containing horse meat treated with the active compound preparation of the desired concentration are populated with about 20 Lucilia cuprina larvae.

Myzus persicae = test: Myzus test (MYZUPE spray treatment); format: in vivo; details: 500 g/ha, after 6 days
From the text: Disks of Chinese cabbage (Brassica pekinensis) infested by all stages of the green peach aphid (Myzus persicae) are sprayed with an active compound formulation of the desired concentration.

Boophilus microplus = Boophilus microplus test (BOOPMI injection); format: in vivo; details: 20 μg/animal, after 7 days
Description: as §3
The solution of active compound is injected into the abdomen (Boophilus microplus), and the animals are transferred into dishes and kept in a climatized room. The activity is assessed by […] of fertile eggs.

Phaedon cochleariae = test: Phaedon test (PHAECO spray treatment); details: 500 g/ha, after 7 days
Spodoptera frugiperda = Spodoptera frugiperda test (SPODFR spray treatment); format: in vivo; details: 500 g/ha, after 7 days
Meloidogyne incognita = Meloidogyne incognita test (MELGIN); format: in vivo; details: 20 ppm, after 14 days
Description: • Solvent: 125 parts by weight of acetone
Containers are filled with sand, solution of active compound, Meloidogyne incognita egg/larvae suspension and lettuce seeds. The lettuce seeds germinate and the plants develop. On the roots, galls are formed. After 14 days, the nematicidal effect in % is determined by the formation of galls. 100% means that no galls have been found; 0% means that the number of galls on the treated plants corresponds to the untreated control.

In the case of `Clc1ccc(C(c2ccc(Cl)cc2)C(Cl)(Cl)Cl)cc1` [DDT], the “log P” value [1] is listed as 6.2.
In the case of `Cc1ccc(-c2ccc(Cl)cc2)cc1C1=C(O)[C@]2(CC[C@H](C(F)(F)F)CC2)NC1=O` [V.2-a, (5s,8s)-3-(4′-Chloro-4-methylbiphenyl-3-yl)-4-hydroxy-8-(trifluoromethyl)-1-azaspiro[4.5]dec-3-en-2-one, reference compound], the chromatographic logP [2] is reported as 2.23, the IC50 (PC3) is reported as 38 nM and the “fu (mouse)” value (plasma proteins) is reported as 2.41%. For the same compound, the IC50 (H460) was 57 nM, the logMA [3] was 2.38 (2.0-2.7, n = 4) and the IC50 (KM12) was 37 nM. The IC50 (MCF7) was 35 nM, the “Selectivity ACC1 vs. ACC2 (mean of the individual measurements ± standard deviation)” value (human ACC1) was 9.8 ± 1.4 and the “Ratio of IC50s ACC2/ACC1 (respective measurement)” value (human ACC1; pairwise, same dilution series) was 11.2 and 8.4. For the same compound, the Kd at 0.25 μmol/liter [4] was 3070 nM and the IC50 (human ACC2) was 1220 nM and 940 nM.
With `Cc1ccc(-c2ccc(F)cc2)c(C)c1C1=C(O)C2(CCC(F)(F)CC2)NC1=O` [Example I-1-a-2] the “effect (kill of spider mites)” value (Tetranychus urticae) was 100%, the kill of larvae (Lucilia cuprina) was 100% and the “effect (kill of aphids)” value (Myzus persicae) was 100%. For the same compound, the “effect (no fertile eggs)” value (Boophilus microplus) was 80%, the “effect (kill of beetle larvae)” value (Phaedon cochleariae) was 100% and the “effect (kill of caterpillars)” value (Spodoptera frugiperda) was 100%. For the same compound, the “nematicidal effect (formation of galls)” value (Meloidogyne incognita) was 100%.
